Tested on: 817829-284-R-J1-PDC complex spheroid viability
Assay: Anticancer human tumor 817829-284-R-J1-PDC patient-derived colon adenocarcinoma cell line growth inhibition [POLQ]
Settings: for IC50: curve of first compound; for viability, T/C: stronger effect = lower value
Summary of the method: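 Patient-derived tumour cells were co-cultured with HUVEC and mesenchymal stem cells as multicellular spheroids at 37 °C. They were treated with POLQ inhibitors (novobiocin, ART-558, RP6685) alone or combined with other agents. Top concentrations were at or near clinical Cmax (otherwise 10 microM; SN-38 at 1 microM), decreasing in half-log steps.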

[1] = second compound 0.0316 µM, first compound 0.0316 µM
[2] = second compound 0.0316 µM, first compound 0.1 µM
[3] = second compound 0.0316 µM, first compound 0.316 µM
[4] = second compound 0.0316 µM, first compound 1 µM
[5] = second compound 0.1 µM, first compound 0.0316 µM
[6] = second compound 0.1 µM, first compound 0.1 µM
[7] = second compound 0.1 µM, first compound 0.316 µM
[8] = second compound 0.1 µM, first compound 1 µM
[9] = second compound 0.316 µM, first compound 0.0316 µM
[10] = second compound 0.316 µM, first compound 0.1 µM
[11] = second compound 0.316 µM, first compound 0.316 µM
[12] = second compound 0.316 µM, first compound 1 µM
[13] = second compound 1 µM, first compound 0.0316 µM
[14] = second compound 1 µM, first compound 0.1 µM
[15] = second compound 1 µM, first compound 0.316 µM
[16] = second compound 1 µM, first compound 1 µM
[17] = second compound 3.16 µM, first compound 0.0316 µM
[18] = second compound 3.16 µM, first compound 0.1 µM
[19] = second compound 3.16 µM, first compound 0.316 µM
[20] = second compound 3.16 µM, first compound 1 µM
[21] = second compound 10 µM, first compound 0.0316 µM
[22] = second compound 10 µM, first compound 0.1 µM
[23] = second compound 10 µM, first compound 0.316 µM
[24] = second compound 10 µM, first compound 1 µM
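Note: spheroids exposed to compounds for 7 days.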
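Throughout, for viability, T/C: 100% = DMSO vehicle-treated spheroids.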

COc1cccc(OCCCN)c1-c1cc(Nc2cnc(C#N)cn2)n[nH]1 + Cc1cccc(N(C)C(=O)C2C(O)CCN2c2nc(C)cc(C(F)(F)F)c2C#N)c1
IC50 (second compound 0.0316 µM): 4.8 nM | IC50 (second compound 0.1 µM): 5.63 nM | IC50 (second compound 0.316 µM): 5.68 nM | IC50 (second compound 1 µM): 5.28 nM | IC50 (second compound 3.16 µM): 4.83 nM | IC50 (second compound 10 µM): 5.22 nM | viability, T/C (second compound 0.0316 µM, first compound 0.00316 µM): 70.3% | viability, T/C (second compound 0.0316 µM, first compound 0.01 µM): 14.5% | viability, T/C [1]: 5.94% | viability, T/C [2]: 4.36% | viability, T/C [3]: 4.2% | viability, T/C [4]: 2.81% | viability, T/C (second compound 0.1 µM, first compound 0.00316 µM): 86.8% | viability, T/C (second compound 0.1 µM, first compound 0.01 µM): 13.4% | viability, T/C [5]: 5.69% | viability, T/C [6]: 4.81% | viability, T/C [7]: 4.14% | viability, T/C [8]: 2.6% | viability, T/C (second compound 0.316 µM, first compound 0.00316 µM): 84.9% | viability, T/C (second compound 0.316 µM, first compound 0.01 µM): 16.4% | viability, T/C [9]: 4.73% | viability, T/C [10]: 4.19% | viability, T/C [11]: 4.39% | viability, T/C [12]: 3.1% | viability, T/C (second compound 1 µM, first compound 0.00316 µM): 78% | viability, T/C (second compound 1 µM, first compound 0.01 µM): 15.3% | viability, T/C [13]: 5.38% | viability, T/C [14]: 4.93% | viability, T/C [15]: 3.71% | viability, T/C [16]: 3.25% | viability, T/C (second compound 3.16 µM, first compound 0.00316 µM): 69.9% | viability, T/C (second compound 3.16 µM, first compound 0.01 µM): 16% | viability, T/C [17]: 5.86% | viability, T/C [18]: 5.17% | viability, T/C [19]: 4.05% | viability, T/C [20]: 2.85% | viability, T/C (second compound 10 µM, first compound 0.00316 µM): 76.6% | viability, T/C (second compound 10 µM, first compound 0.01 µM): 15.7% | viability, T/C [21]: 5.87% | viability, T/C [22]: 4.92% | viability, T/C [23]: 4.34% | viability, T/C [24]: 3.21%

CC(=O)O[C@H]1C(=O)[C@@]2(C)[C@H]([C@H](OC(=O)c3ccccc3)[C@]3(O)C[C@H](OC(=O)[C@H](O)[C@@H](NC(=O)c4ccccc4)c4ccccc4)C(C)=C1C3(C)C)[C@]1(OC(C)=O)CO[C@@H]1C[C@@H]2O + Cc1cccc(N(C)C(=O)C2C(O)CCN2c2nc(C)cc(C(F)(F)F)c2C#N)c1
IC50 (second compound 0.0316 µM): < 9.49 nM | IC50 (second compound 0.1 µM): < 9.49 nM | IC50 (second compound 0.316 µM): < 9.49 nM | IC50 (second compound 1 µM): < 9.49 nM | IC50 (second compound 3.16 µM): < 9.49 nM | IC50 (second compound 10 µM): < 9.49 nM | viability, T/C (second compound 0.0316 µM, first compound 0.00949 µM): 4.71% | viability, T/C (second compound 0.0316 µM, first compound 0.03 µM): 4.06% | viability, T/C (second compound 0.0316 µM, first compound 0.0949 µM): 3.84% | viability, T/C (second compound 0.0316 µM, first compound 0.3 µM): 3.78% | viability, T/C (second compound 0.0316 µM, first compound 0.949 µM): 3.98% | viability, T/C (second compound 0.0316 µM, first compound 3 µM): 4.66% | viability, T/C (second compound 0.1 µM, first compound 0.00949 µM): 4.94% | viability, T/C (second compound 0.1 µM, first compound 0.03 µM): 4.36% | viability, T/C (second compound 0.1 µM, first compound 0.0949 µM): 3.84% | viability, T/C (second compound 0.1 µM, first compound 0.3 µM): 4.37% | viability, T/C (second compound 0.1 µM, first compound 0.949 µM): 4.32% | viability, T/C (second compound 0.1 µM, first compound 3 µM): 4.51% | viability, T/C (second compound 0.316 µM, first compound 0.00949 µM): 4.66% | viability, T/C (second compound 0.316 µM, first compound 0.03 µM): 4.72% | viability, T/C (second compound 0.316 µM, first compound 0.0949 µM): 4.39% | viability, T/C (second compound 0.316 µM, first compound 0.3 µM): 4.37% | viability, T/C (second compound 0.316 µM, first compound 0.949 µM): 4.24% | viability, T/C (second compound 0.316 µM, first compound 3 µM): 3.51% | viability, T/C (second compound 1 µM, first compound 0.00949 µM): 4.57% | viability, T/C (second compound 1 µM, first compound 0.03 µM): 8.02% | viability, T/C (second compound 1 µM, first compound 0.0949 µM): 4.15% | viability, T/C (second compound 1 µM, first compound 0.3 µM): 4.37% | viability, T/C (second compound 1 µM, first compound 0.949 µM): 4.04% | viability, T/C (second compound 1 µM, first compound 3 µM): 4.46% | viability, T/C (second compound 3.16 µM, first compound 0.00949 µM): 4.41% | viability, T/C (second compound 3.16 µM, first compound 0.03 µM): 3.99% | viability, T/C (second compound 3.16 µM, first compound 0.0949 µM): 4.51% | viability, T/C (second compound 3.16 µM, first compound 0.3 µM): 4.14% | viability, T/C (second compound 3.16 µM, first compound 0.949 µM): 3.93% | viability, T/C (second compound 3.16 µM, first compound 3 µM): 3.87% | viability, T/C (second compound 10 µM, first compound 0.00949 µM): 4.67% | viability, T/C (second compound 10 µM, first compound 0.03 µM): 3.97% | viability, T/C (second compound 10 µM, first compound 0.0949 µM): 4.2% | viability, T/C (second compound 10 µM, first compound 0.3 µM): 4.14% | viability, T/C (second compound 10 µM, first compound 0.949 µM): 4.11% | viability, T/C (second compound 10 µM, first compound 3 µM): 4.13%

CCc1cc2c(N3CCc4c(cc(Cn5ccnc5)cc4-c4cn(C)nc4C(F)(F)F)C3=O)ccnc2c(OC)n1 + Cc1cccc(N(C)C(=O)C2C(O)CCN2c2nc(C)cc(C(F)(F)F)c2C#N)c1
IC50 (second compound 0.0316 µM): 3280 nM | IC50 (second compound 0.1 µM): 4180 nM | IC50 (second compound 0.316 µM): 4630 nM | IC50 (second compound 1 µM): 2770 nM | IC50 (second compound 3.16 µM): 2430 nM | IC50 (second compound 10 µM): 1570 nM | viability, T/C [1]: 84% | viability, T/C [2]: 73.8% | viability, T/C [3]: 67.4% | viability, T/C [4]: 64.2% | viability, T/C (second compound 0.0316 µM, first compound 3.16 µM): 49.7% | viability, T/C (second compound 0.0316 µM, first compound 10 µM): 38.4% | viability, T/C [5]: 87.5% | viability, T/C [6]: 96% | viability, T/C [7]: 72.7% | viability, T/C [8]: 77.2% | viability, T/C (second compound 0.1 µM, first compound 3.16 µM): 54.7% | viability, T/C (second compound 0.1 µM, first compound 10 µM): 31.2% | viability, T/C [9]: 95.5% | viability, T/C [10]: 87.9% | viability, T/C [11]: 76.9% | viability, T/C [12]: 73.8% | viability, T/C (second compound 0.316 µM, first compound 3.16 µM): 51.3% | viability, T/C (second compound 0.316 µM, first compound 10 µM): 41.1% | viability, T/C [13]: 90.6% | viability, T/C [14]: 82.2% | viability, T/C [15]: 76.8% | viability, T/C [16]: 65.4% | viability, T/C (second compound 1 µM, first compound 3.16 µM): 47.1% | viability, T/C (second compound 1 µM, first compound 10 µM): 29.3% | viability, T/C [17]: 84.9% | viability, T/C [18]: 94.9% | viability, T/C [19]: 86.8% | viability, T/C [20]: 61.1% | viability, T/C (second compound 3.16 µM, first compound 3.16 µM): 50.1% | viability, T/C (second compound 3.16 µM, first compound 10 µM): 32.8% | viability, T/C [21]: 92.9% | viability, T/C [22]: 71.8% | viability, T/C [23]: 69.1% | viability, T/C [24]: 56.8% | viability, T/C (second compound 10 µM, first compound 3.16 µM): 42.1% | viability, T/C (second compound 10 µM, first compound 10 µM): 30.5%
